Source: patent US20220002396A1, “METHODS OF TREATING CANCER WITH FARNESYLTRANSFERASE INHIBITORS” (Kura Oncology, Inc., priority 2018, published 2022)

Columns and labels:
Format in all cases: in vivo, human
nodal PTCL = experiment: Tipifarnib monotherapy in nodal PTCL patients with pre-treatment GEP data; details: 13 nodal PTCL patients
Description: (§1) Gene expression profile (GEP) data generated using RNA-Seq and the Affymetrix U133A gene-chip of tumor samples from 71 patients enrolled in tipifarnib trials (CTEP-20, KO-TIP-002, KO-TIP-004) were analyzed with respect to study outcomes and complemented with analyses of mRNA expression in data sets from the cBioportal for Cancer Genomics. Clinical trial information: NCT00027872, NCT02464228, NCT02807272.
The effect of CXCL12 and IGF1 was also investigated in 13 nodal PTCL patients with pre-treatment GEP data who received tipifarnib monotherapy. […] Adjusting the IGFBP7 expression to the level of IGF1R expression also identified those patients as responders to therapy.

previously untreated AML = experiment: Tipifarnib monotherapy in elderly patients with previously untreated AML (CTEP-20), outcome by IGF1/CXCL12 expression
Description: as §1
Data from a study investigating tipifarnib monotherapy in elderly patients with previously untreated AML (CTEP-20) was examined in detail to determine the effect of the expression of CXCL12 and IGF1 on the response of the patients to tipifarnib.
The effect of IGF1/CXCL12 co-expression on patient outcome in tipifarnib was examined. In previously untreated AML, 3 subsets of patients were identified with respect to IGF1/CXCL12 expression (FIG. 2A). These subsets were 1) high IGF1, high CXCL12 (left boxplots), 2) intermediate IGF1, low CXCL12 (middle boxplots), and 3) low IGF1, variable CXCL12, (right boxplots).
When CXCL12 was at low levels and IGF1 was at intermediate levels, low CXCL12 levels translates to disease progression with 1 CR and 8 with progressive disease (PD) as outcome (FIG. 2C). When the IGF1 levels were low, CXCL12 had variable levels and six patients out of 15 experienced CR. […] Receiver-Operator-Characterisitics (ROC) curves for prediction of a CR in these patients confirmed that higher CXCL12 and lower IGF1 levels were predictive of complete responses in the AML patient population (FIG. 2E).

breast cancer = experiment: Phase II study of tipifarnib in breast cancer patients (Study GBR-1)
Description: Biomarkers in breast cancer were also examined for their relationship to CXCL12/IGF1 expression and to the activity of tipifarnib when administered to patients. A phase II study was performed with 76 patients treated with tipifarnib (Study GBR-1). Patients were tested for estrogen-receptor positivity (ER+) or negativity (ER−), progesterone receptor positivity (PGR+) or negativity (PGR−), and the presence or absence of TP53 mutation. Overall response rate in the study was 12%. Biomarker data was available for 41 patients.

CMML = experiment: Tipifarnib-treated CMML subjects with pre-treatment BM gene expression data; details: in 17 tipifarnib-treated CMML subjects
Description: as §1
Four objective responses and 1 tumor lysis syndrome were reported in 17 tipifarnib-treated CMML subjects with available pre-treatment BM gene expression data. CXCL12 expression (p=0.07) and the CXCL12/CXCR4 ratio (p=0.03) were predictive of those events while IGF1 expression levels were barely detectable in these patients.

[1] = system: advanced pancreatic adenocarcinoma; experiment: Randomized, double-blind, placebo-controlled study of gemcitabine+tipifarnib versus gemcitabine+placebo (Study INT-17 / INT-11)
Description: In a randomized, double-blind, placebo-controlled study of gemcitabine+tipifarnib versus gemcitabine+placebo in patients with advanced pancreatic adenocarcinoma previously untreated with systemic therapy, tipifarnib (R115777) was administered at a dosage amount of 200 mg twice a day, orally, and continuously (Study INT-17). Gemcitabine was administered intravenously at a dosage amount of 1,000 mg/m(2) weekly x 7 for 8 weeks, then weekly x 3 every 4 weeks. 686 patients were enrolled. The median overall survival for the experimental arm was 193 v 182 days for the control arm (P=0.75).

[2] = subset intermediate IGF1, low CXCL12

Row | tumor lysis syndrome (CMML) | Neutropenia grade > or =3 ([1]; all patients, per arm) [%] | thrombocytopenia grade > or =3 ([1]; all patients, per arm) [%] | Compound | partial responses (PR) (nodal PTCL) | complete response (CR) (previously untreated AML; subset high IGF1, high CXCL12, out of 10 subjects) [patients] | complete response (CR) (previously untreated AML; [2]) | progressive disease (PD) as outcome (previously untreated AML; [2]) | Overall response rate (breast cancer; 76 patients treated) [%] | objective response rate (breast cancer; four patients with PGR(+) and ER(−) tumors) [%] | RESPONSE (breast cancer; one line per patient, PGR(+) ER(−) population) | objective response rate (breast cancer; seven patients with PGR(+) and wild type TP53 tumors) [%] | median overall survival ([1]; 686 patients enrolled, tipifarnib 200 mg twice a day orally, gemcitabine 1,000 mg/m(2) IV, P=0.75) [days] | survival of patients not reporting versus reporting abdominal pain at study entry, within arm ([1]; FIG. 5B)
1 | 1 | – | – | Cn1cncc1[C@@](N)(c1ccc(Cl)cc1)c1ccc2c(c1)c(-c1cccc(Cl)c1)cc(=O)n2C [tipifarnib] | 2 | 2 | 1 | 8 | 12 | 75 | NO RESPONSE | 57 | – | –
2 | – | 30 | 12 | gemcitabine [gemcitabine+placebo] | – | – | – | – | – | – | – | – | 182 | not significantly different
